Entries after “also recorded” stand apart in the source; their conditions may differ.
Assays:
[1] = Microsomal Stability Assay (Examples 6 and 8); format: in vitro ADME, mouse; details: for half-life at 20 µM: CD-1, mouse, liver microsomes, pH 7.4, text, read-out: half-life in mouse liver microsomes; for microsomal stability / half-life, in words: assessed over two hours
Protocol: (§1) To a 96-well polypropylene plate was added phosphate buffer (182.2 μL, pH 7.4, 100 mM) followed by addition of NADPH-regenerating system solution A (10 μL), and NADPH regenerating system solution B (2 μL) (Corning Gentest 3P NADPH regenerating system solution A (#451220) and B (#451200)). A stock solution of analog (0.8 μL. 5 mM) or fer-1 (positive control) was added and the mixture was warmed to 37° C. for 5 min. Mouse microsomes (CD-1, 20 mg/mL, Life Technologies) (5 μL, thawed in 37° C. water bath before use) were added. The resulting reaction mixture was kept at 37° C. with gentle agitation for the duration of the experiment. At selected time points (0, 1, 5, 10, 20, 30, 60 and 120 min) aliquots (15 μL) were withdrawn from the plate and quenched upon addition to cold methanol (60 μL), containing an internal standard (5 μM) in a separate 96-well polypropylene plate. At the completion of the final time-point, the samples were centrifuged at 4,000 rpm for 5 min at 4° C. The supernatant (40 μL) was withdrawn and transferred to a sample vial with insert. The samples were analyzed by LC-MS. LC-MS analysis was performed on a platform comprising a Thermo Scientific Dionex Ultimate 3000 and a Bruker amaZon SL equipped with an electrospray ionization source controlled by Bruker Hystar 3.2. Chromatographic separation was performed by injecting 5 μL of the sample onto an Agilent Eclipse Plus C18 column (2.1×50 mm, 3.5 μm) maintained at 20° C. The flow rate was maintained at 400 μL/min. The initial flow conditions were 80% solvent A (water containing 0.1% acetic acid) and 20% solvent B (methanol containing 0.1% acetic acid). Solvent B was raised to 80% over 0.50 min by 1.50 min. Solvent B was raised to 100% by 5.00 min and held there for 3.25 min. […] All analogs were detected in positive mode as [M+H]*. The percent of compound remaining at each time-point was calculated as the ratio of the integrated compound peak over the internal standard peak and standardized to the t=0 time-point. Values were plotted in GraphPad Prism 9 and fit with a one phase decay.
as §1, with “and NADPH-regenerating” for “and NADPH regenerating”, “rpm (1872 g)” for “rpm”, “[M+H]*. […]” for “[M+H]*. The percent of compound remaining at each time-point was calculated as the ratio of the integrated compound peak over the internal standard peak and standardized to the t=0 time-point. Values were plotted in GraphPad Prism 9 and fit with a one phase decay.”

HT-1080 cells = assay: Cell viability assays in HT-1080 cells, ferroptosis induced by IKE or RSL3 (Example 8); format: cell-based; details: for IC50: Homo sapiens, HT-1080, 48 h
Protocol: Cell culture assays were incubated at 37° C. with 5% CO2. HT-1080 cells were grown in DMEM (Corning) supplemented with 10% FBS (Life Technologies), 1% Penicillin-Streptomycin 10,000 U/mL (Gibco), and 1% MEM Non-Essential Amino Acids Solution 100× (Gibco). For cell viability assays, cells were trypsinized, counted, and seeded into 384-well white polypropylene plates at 1,000 cells/well, unless otherwise specified. After allowing cells to adhere overnight, compounds in DMSO stocks were arrayed in a 16-point dilution series prepared in a mother plate, and treated from a daughter plate, [DMSO]=0.28%. After 24 or 48 h, 50% CellTiter-Glo (Promega) 50% cell culture medium was added to each well and incubated at room temperature with shaking for 15 min. Luminescence was measured using a Victor X5 plate reader (PerkinElmer). All cell viability data were normalized to the DMSO vehicle condition. […] All 384w measurements were performed in triplicate
We first evaluated the efficacy of four pyridine analogs, TH-2-9-1, TH-2-31, TH-2-37-1, and TH-2-37-2, in suppressing ferroptosis induced by IKE and RSL3 in HT-1080 cells. […] We sought to determine whether incorporation of pyridine changed stability in mouse liver microsomes.

[2] = TH-2-31, TH-4-55-2, TH-4-67 PK Study (IP, IV, PO; plasma and brain); format: in vivo, C57BL/6 mice; details: mouse, in vivo
Protocol: C57BL/6 mice (8-weeks of age and ˜25 g weight) were weighed before injection and divided into groups of two male and female mice per cage. Compound was dissolved in 5% DMSO/95% of 1:1 [(65% v/v of 25% w/v 2-hydroxypropyl-3-cyclodextrin (Cayman Chemical) dissolved in 20% EtOH, 30% v/v Poly(ethylene glycol)-400 (Sigma Aldrich 202398), 5% v/v Tween 80 (Fluka 59924)):MilliQ water] to create a 2 mg/mL solution. The same formulation without compound was used as a vehicle control. The solution was sterilized using a […] Steriflip filter unit (Thomas Scientific 1189Q46). Mice were dosed IP, IV, and PO routes of administration and euthanized by CO2 asphyxiation for 3 min at 0, 1, 2, 4, 8, and 24 h after administration. To ensure that the vehicle was well-tolerated 4 mice were treated with vehicle and euthanized 4 h after administration. ˜0.5 mL of blood was collected via cardiac puncture and immediately put in K3 EDTA microtubes ([…] 41.1504.105) and kept on ice. Organs were harvested, placed in Eppendorf tubes, and frozen on dry ice. Blood samples were centrifuged for 10 min at 2,100×g at 4° C., then plasma was transferred to a clean tube and frozen on dry ice. Organ samples were weighed and placed in hard tissue homogenizing tubes (Omni International 19-628) and a volume of DEPC-treated nuclease-free water (IBI Scientific IB42200) was added to make a 500 mg/mL solution and homogenized using the Omni Bead Ruptor 4 at speed 5 for 30 seconds. Compound was extracted from plasma or organ homogenate by adding 900 μL acetonitrile to 100 μL plasma or organ homogenate. Samples were mixed by vortexing and allowed to extract overnight at 4° C. prior to mixing for at least 5 min by rotating at room temperature, vortexing, and sonicating for at least 30 second prior to centrifugation for 10 min at 4,000×g and 4° C. The supernatant was then transferred to a glass vial and analyzed by UPLC-MS described below. The concentration of each analog was determined against a standard curve with a nonlinear fit and the data plot in GraphPad Prism 9 and fit with a one phase decay.
Samples from animal studies were analyzed via UPLC-MS using a Waters Xevo G2-Xs QTof Mass spectrometer equipped with an Acquity UPLC. Chromatographic separation was carried out at 50° C. on a Acquity UPLC BEH C18 column (1.7 μm, 2.1 mm×50 mm, pore size 130 Å) over a 4.5 min gradient elution. The flowrate was held constant at 0.8 mL/min. Mobile phase A consisted of water and mobile phase B consisted of ACN both containing 0.1% formic acid. After injection, the gradient was held at 50% A for 0.25 min. For the next minute, the gradient was ramped in a linear fashion to 100% B and held at this composition for 0.5 min. The eluent composition returned to the initial condition in 0.01 min and the column was re-equilibrated for 2.74 min before the next injection. Injection volumes were 0.5 μL (TH-2-31 40 mg/kg) and 1 μL for all other conditions. The Xevo G2-Xs was operated in positive electrospray ionization (ESI) mode. A capillary voltage and sampling cone voltage of 0.5 kV and 30 V were used. The source and desolvation temperatures were kept at 120° C. and […], respectively. Nitrogen was used as the desolvation gas with a flowrate of 750 L/hr. The protonated molecular ion of leucine encephalin ([M+H]^+, m/z 556.2771 was used as a lock mass for mass accuracy and reproducibility. Leucine enkephalin was introduced to the lock mass at a concentration of 2 ng/mL (50% ACN containing 0.1% formic acid), and a flow rate of […]. To avoid signal saturation, the signal transmission was attenuated to <10%, based off the signal intensity of the highest standard concentration for the duration of the run. The data was collected over the mass range m/z 50 to 1200 Da with an acquisition time of 0.1 seconds per scan. The retention time for each analog is detailed below. […]

[3] = test system: N27 rat dopaminergic cells; assay: Suppression of ferroptosis induced by RSL3 in N27 cells (CellTiter-Glo viability); format: cell-based; details: Rattus norvegicus, N27, 24 h, Table 3; ^d 24 hr treatment, 1,000 cells/well seeded; read-out: IC50
[4] = ^b 2 μM IKE, 48 hours, 1,000 cells/well
[5] = ^c 0.2 μM RSL3, 48 hours, 1,000 cells/well

Compound	half-life at 20 µM [1]	potency relative to fer-1 at suppressing ferroptosis, in words (HT-1080 cells)	also measured
Cc1noc(-c2ccc(NC3CCCCC3)c(N)c2)n1 [PHB4078, N1-cyclohexyl-4-(3-methyl-1,2,4-oxadiazol-5-yl)benzene-1,2-diamine]	< 1 h	–	–
Cc1noc(-c2ccc(NC34CC5CC(CC(C5)C3)C4)c(N)c2)n1 [PHB4066, N1-((3s,5s,7s)-adamantan-1-yl)-4-(3-methyl-1,2,4-oxadiazol-5-yl)benzene-1,2-diamine]	< 1 h	–	–
CC(C)(C)OC(=O)c1ccc(NC2CCCCC2)c(Nc2ccccc2)c1 [PHB4081, tert-butyl 4-(cyclohexylamino)-3-(phenylamino)benzoate]	< 1 h	–	–
CC(C)(C)OC(=O)c1ccc(NC23CC4CC(CC(C4)C2)C3)c(NC2CCCCC2)c1 [DL032, tert-butyl 4-(((3s,5s,7s)-adamantan-1-yl)amino)-3-(cyclohexylamino)benzoate]	–	more potent than fer-1	microsomal stability / half-life, in words [1]: half-lives greater than two hours
Cc1cc(NC23CC4CC(CC(C4)C2)C3)c(NC2CCCCC2)cc1C(=O)OC(C)(C)C [AZIII9, tert-butyl 4-(((3s,5s,7s)-adamantan-1-yl)amino)-5-(cyclohexylamino)-2-methylbenzoate]	–	less potent than fer-1	microsomal stability / half-life, in words [1]: half-lives greater than two hours; also recorded: the most stable compound tested
CC(C)(C)OC(=O)c1cc(NC2CCCCC2)c(NC23CC4CC(CC(C4)C2)C3)cc1F [AZIII8, tert-butyl 4-(((3s,5s,7s)-adamantan-1-yl)amino)-5-(cyclohexylamino)-2-fluorobenzoate]	–	more potent than fer-1	microsomal stability / half-life, in words [1]: half-lives greater than two hours
Cc1cc(NC23CC4CC(CC(C4)C2)C3)c(N)cc1C(=O)OC(C)(C)C [AZIII4, tert-butyl 4-(((3s,5s,7s)-adamantan-1-yl)amino)-5-amino-2-methylbenzoate]	< 1 h	–	–
Cc1noc(-c2cc(NC(C)C)cnc2NC2CCCCC2)n1 [TH-2-37-2, N^2-cyclohexyl-N^5-isopropyl-3-(3-methyl-1,2,4-oxadiazol-5-yl)pyridine-2,5-diamine]	–	potencies greater than fer-1	IC50 (HT-1080 cells; [4]): 5.4 nM; IC50 (HT-1080 cells; [5]): 3.8 nM
CC(C)(C)OC(=O)c1cc(N)c(NC23CC4CC(CC(C4)C2)C3)cc1F [AZII78, tert-butyl 4-(((3s,5s,7s)-adamantan-1-yl)amino)-5-amino-2-fluorobenzoate]	< 1 h	–	–
Cc1noc(-c2cnc(NC34CC5CC(CC(C5)C3)C4)c(NC3CCCCC3)c2)n1 [TH-4-100-2, N^2-((3s,5s,7s)-adamantan-1-yl)-N^3-cyclohexyl-5-(3-methyl-1,2,4-oxadiazol-5-yl) pyridine-2,3-diamine]	–	–	tolerability / adverse observations after dosing [2]: less impaired immediately following injection and recovered more quickly; also recorded: less impaired immediately following injection and recovered quicker; IC50 [3]: 18.9 nM
Cc1noc(-c2cc(NC3CCCCC3)cnc2NC2CCCCC2)n1 [TH-2-37-1, N^2,N^5-dicyclohexyl-3-(3-methyl-1,2,4-oxadiazol-5-yl)pyridine-2,5-diamine]	–	potencies greater than fer-1	IC50 (HT-1080 cells; [4]): 7.5 nM; IC50 (HT-1080 cells; [5]): 4.3 nM

From patent publication US20240156790A1, “COMPOUNDS, COMPOSITIONS, AND METHODS FOR MODULATING FERROPTOSIS AND TREATING EXCITOTOXIC DISORDERS” (THE TRUSTEES OF COLUMBIA UNIVERSITY IN THE CITY OF NEW YORK, priority 2018, published 2024)
